One assay deals with IMP-1 (Serratia marcescens, UniProt P52699). The experiment in a line: Enzyme activity: determination of IC50, fluorescence assay with CCF2-FA substrate. The format is biochemical. The note with it: IMP-1 enzyme 2 pM, CCF2-FA 1.25 μM, 2 hours at 25° C.; read-out: IMP1 IC50. The gist of the method: (§1)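 Enzyme at 1 pM (NDM-1), 2 pM (IMP-1) or 30 pM (VIM-1) was incubated with inhibitor (20 μM to 0.00063 μM) and 1.25 μM CCF2-FA in 100 mM KH2PO4 pH 7, 0.005% Tween-20, 10 μM ZnSO4 for 2 hours at 25° C. Fluorescence was read at ex 405/em 460 nm; IC50 from 4-parameter fit.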
Chain of IMP-1 (P52699 19-246, looked up, species assumed): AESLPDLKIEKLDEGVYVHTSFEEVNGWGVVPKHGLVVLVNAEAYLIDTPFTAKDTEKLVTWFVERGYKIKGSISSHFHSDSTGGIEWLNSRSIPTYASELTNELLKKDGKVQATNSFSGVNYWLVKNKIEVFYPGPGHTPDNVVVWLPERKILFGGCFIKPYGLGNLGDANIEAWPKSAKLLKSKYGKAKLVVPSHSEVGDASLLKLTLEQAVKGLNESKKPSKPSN

The target of the next assay is NDM-1 (Klebsiella pneumoniae, UniProt C7C422). Described as above. Particulars: NDM-1 enzyme 1 pM, CCF2-FA 1.25 μM, 2 hours at 25° C.; read-out: NDM1 IC50. The format is biochemical. The essentials: as §1
Chain of NDM-1 (C7C422 29-270, looked up, species assumed): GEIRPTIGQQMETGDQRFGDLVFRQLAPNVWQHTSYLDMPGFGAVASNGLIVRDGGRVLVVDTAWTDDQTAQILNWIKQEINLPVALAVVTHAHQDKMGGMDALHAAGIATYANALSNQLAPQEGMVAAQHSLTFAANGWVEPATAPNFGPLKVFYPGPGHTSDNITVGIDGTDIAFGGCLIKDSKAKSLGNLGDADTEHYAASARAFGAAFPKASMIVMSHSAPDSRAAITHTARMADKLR
A further assay concerns the target VIM-1 (Pseudomonas aeruginosa, UniProt A0A0F7KYQ8). Described as above. The format is biochemical. The note with it: VIM-1 enzyme 30 pM, CCF2-FA 1.25 μM, 2 hours at 25° C.; read-out: VIM1 IC50. The essentials:
as §1

The test system of assay [1] is Escherichia coli expressing NDM-1 (CLB30016). Description: Antibiotic potentiation activity: synergistic concentration (MITC95) with imipenem, growth by OD600. The format is cell-based. The note with it: E. coli CLB30016 (NDM-1), 95% inhibition of growth. The gist of the method: (§2)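 Colonies from overnight agar plates (35 °C) were suspended in saline and diluted 1:100 into 1.1× CAMHB. Inhibitor (final 200 μM to 0.195 μM) was combined with imipenem at 1 or 4 μg/ml, incubated 22–24 h at 35 °C, and absorbance read; MITC95 is the lowest inhibitor concentration giving 95% growth inhibition.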

The test system of assay [2] is Klebsiella pneumoniae expressing VIM-1 (IHMA599644). The description is as above. It is filed as cell-based. The note with it: K. pneumoniae IHMA599644 (VIM-1), 95% inhibition of growth. The gist of the method:
as §2

Assay [3] relates to Serratia marcescens expressing IMP-1 (CL5741). The assay is described as above. It is filed as cell-based. Particulars: S. marcescens CL5741 (IMP-1), 95% inhibition of growth. The essentials:
as §2

Each structure is given as a SMILES string.

As for `CC(C)C[C@H](C(=O)O)[C@H](Cc1ccc(N2CCC3(CC2)CNC3)nc1)c1nnn[nH]1` [Example 308, (2S)-2-[(1S)-2-[6-(2,7-diazaspiro[3.5]non-7-yl)pyridin-3-yl]-1-(1H-tetrazol-5-yl)ethyl]-4-methylpentanoic acid], the IC50 at IMP-1 amounted to 0.37 µM; at NDM-1, 0.12 µM; on VIM-1, 0.032 µM. For the same compound, the “NDM1 EC30016 MITC95” value in assay [1] amounted to 3.1 µM. The “VIM1 KP599644 MITC95” value in assay [2] is 25 µM. Further, in assay [3], the “IMP1 SM5741 MITC95” value was 9.4 µM.
For `CC(C)C[C@H](C(=O)O)[C@H](Cc1ccc(N2CCCC(CO)C2)nc1)c1nnn[nH]1` (stereo partly drawn) [Example 309, (2S)-2-[(1S)-2-{6-[3-(hydroxymethyl)piperidin-1-yl]pyridin-3-yl}-1-(1H-tetrazol-5-yl)ethyl]-4-methylpentanoic acid], the IC50 on IMP-1 worked out at 0.15 µM; at NDM-1 it was 0.062 µM; at VIM-1, 0.024 µM. In addition, the “NDM1 EC30016 MITC95” value in assay [1] worked out at 6.2 µM. In addition, in assay [2], the “VIM1 KP599644 MITC95” value was 75 µM. Besides, the “IMP1 SM5741 MITC95” value in assay [3] was 6.2 µM.
With `CC(C)C[C@H](C(=O)O)[C@H](Cc1ccc(N2CCC(N)C2)nc1)c1nnn[nH]1` (stereo partly drawn) [Example 310, (2S)-2-[(1S)-2-[6-(3-aminopyrrolidin-1-yl)pyridin-3-yl]-1-(1H-tetrazol-5-yl)ethyl]-4-methylpentanoic acid], the IC50 on IMP-1 is 1.8 µM; at NDM-1, 0.43 µM; on VIM-1 it was 0.0046 µM. Also, in assay [1], the “NDM1 EC30016 MITC95” value came out at 4.7 µM. Further, in assay [2], the “VIM1 KP599644 MITC95” value came out at 12.5 µM. Further, in assay [3], the “IMP1 SM5741 MITC95” value worked out at 25 µM.
On to `CNC(=O)C1CCCN(c2ccc(C[C@H](c3nnn[nH]3)[C@H](CC(C)C)C(=O)O)cn2)C1` (stereo partly drawn) [Example 311, (2S)-4-methyl-2-[(1S)-2-{6-[3-(methylcarbamoyl)piperidin-1-yl]pyridin-3-yl}-1-(1H-tetrazol-5-yl)ethyl] pentanoic acid], for which the results for the IC50 at IMP-1, on NDM-1 and on VIM-1 were 0.15 µM, 0.087 µM and 0.026 µM, respectively. For the same compound, the “NDM1 EC30016 MITC95” value in assay [1] is 6.2 µM. Further, the “VIM1 KP599644 MITC95” value in assay [2] is 100 µM. In addition, the “IMP1 SM5741 MITC95” value in assay [3] was 9.4 µM.
For `CC(C)C[C@H](C(=O)O)[C@H](Cc1ccc(N2CCC(CNS(C)(=O)=O)CC2)nc1)c1nnn[nH]1` [Example 312, (2S)-4-methyl-2-[(1S)-2-[6-(4-{[(methylsulfonyl)amino]methyl}piperidin-1-yl)pyridin-3-yl]-1-(1H-tetrazol-5-yl)ethyl]pentanoic acid], the half-maximal inhibitory concentration (IC50) on IMP-1 turned out to be 0.25 µM; at NDM-1, 0.042 µM; at VIM-1 it was 0.048 µM. The “NDM1 EC30016 MITC95” value in assay [1] turned out to be 9.4 µM. The “VIM1 KP599644 MITC95” value in assay [2] was found to be 150 µM. In addition, in assay [3], the “IMP1 SM5741 MITC95” value turned out to be 31 µM.
For `CC(C)C[C@H](C(=O)O)[C@H](Cc1ccc(N2CCC(O)C2)nc1)c1nnn[nH]1` (stereo partly drawn) [Example 313, (2S)-2-[(1S)-2-[6-(3-hydroxypyrrolidin-1-yl)pyridin-3-yl]-1-(1H-tetrazol-5-yl)ethyl]-4-methylpentanoic acid], the values for the IC50 on IMP-1, on NDM-1 and at VIM-1 were 0.36 µM, 0.075 µM and 0.0038 µM, respectively. In addition, the “NDM1 EC30016 MITC95” value in assay [1] worked out at 1.6 µM. In addition, the “VIM1 KP599644 MITC95” value in assay [2] amounted to 12.5 µM. In assay [3], the “IMP1 SM5741 MITC95” value was 12.5 µM.
For the compound `CC(C)C[C@H](C(=O)O)[C@H](Cc1ccc(N2CCC(CO)CC2)nc1)c1nnn[nH]1` [Example 314, (2S)-2-[(1S)-2-{6-[4-(hydroxymethyl)piperidin-1-yl]pyridin-3-yl}-1-(1H-tetrazol-5-yl)ethyl]-4-methylpentanoic acid], the IC50 is 0.19 µM on IMP-1, 0.049 µM at NDM-1 and 0.016 µM at VIM-1. For the same compound, the “NDM1 EC30016 MITC95” value in assay [1] amounted to 6.2 µM. Also, the “VIM1 KP599644 MITC95” value in assay [2] is 75 µM. In assay [3], the “IMP1 SM5741 MITC95” value amounted to 12.5 µM.
For `CC(C)C[C@H](C(=O)O)[C@H](Cc1ccc(N2CCCC2CO)nc1)c1nnn[nH]1` (stereo partly drawn) [Example 315, (2S)-2-[(1S)-2-{6-[2-(hydroxymethyl)pyrrolidin-1-yl]pyridin-3-yl}-1-(1H-tetrazol-5-yl)ethyl]-4-methylpentanoic acid], the IC50 on IMP-1 is 0.061 µM; on NDM-1, 0.067 µM; at VIM-1, 0.006 µM. Moreover, the “NDM1 EC30016 MITC95” value in assay [1] turned out to be 3.1 µM. For the same compound, in assay [2], the “VIM1 KP599644 MITC95” value came out at 38 µM. Besides, in assay [3], the “IMP1 SM5741 MITC95” value stood at 6.2 µM.
Consider `CC(C)C[C@H](C(=O)O)[C@H](Cc1ccc(N[C@@H]2CC[C@H](N)C2)nc1)c1nnn[nH]1` [Example 316, (2S)-2-[(1S)-2-(6-{[(1R,3S)-3-aminocyclopentyl]amino}pyridin-3-yl)-1-(1H-tetrazol-5-yl)ethyl]-4-methylpentanoic acid], for which the results for the IC50 at IMP-1, on NDM-1 and on VIM-1 were 1.2 µM, 0.45 µM and 0.022 µM, respectively. In assay [1], the “NDM1 EC30016 MITC95” value amounted to 1.6 µM. For the same compound, the “VIM1 KP599644 MITC95” value in assay [2] was 12.5 µM. Besides, the “IMP1 SM5741 MITC95” value in assay [3] was 12.5 µM.
Consider `CC(C)C[C@H](C(=O)O)[C@H](Cc1ccc(N[C@H]2CC[C@H](N)C2)nc1)c1nnn[nH]1` [Example 317, (2S)-2-[(1S)-2-(6-{[(1S,3S)-3-aminocyclopentyl]amino}pyridin-3-yl)-1-(1H-tetrazol-5-yl)ethyl]-4-methylpentanoic acid], for which the IC50 at IMP-1 was determined as 1.6 µM; at NDM-1, 0.35 µM; on VIM-1, 0.014 µM. Also, the “NDM1 EC30016 MITC95” value in assay [1] was found to be 1.6 µM. Further, the “VIM1 KP599644 MITC95” value in assay [2] was 18.8 µM. The “IMP1 SM5741 MITC95” value in assay [3] stood at 12.5 µM.
For the compound `CC(C)C[C@H](C(=O)O)[C@H](Cc1ccc(NCCC(C)N)nc1)c1nnn[nH]1` (stereo partly drawn) [Example 318, (2S)-2-[(1S)-2-{6-[(3-aminobutyl)amino]pyridin-3-yl}-1-(1H-tetrazol-5-yl)ethyl]-4-methylpentanoic acid], the IC50 is 2 µM at IMP-1, 0.37 µM on NDM-1 and 0.011 µM on VIM-1. The “NDM1 EC30016 MITC95” value in assay [1] stood at 1.6 µM. The “VIM1 KP599644 MITC95” value in assay [2] turned out to be 12.5 µM. Also, the “IMP1 SM5741 MITC95” value in assay [3] came out at 18.8 µM.
As to `CC(C)C[C@H](C(=O)O)[C@H](Cc1ccc(NC2CNCc3ccccc32)nc1)c1nnn[nH]1` (stereo partly drawn) [Example 319, (2S)-4-methyl-2-[(1S)-2-[6-(1,2,3,4-tetrahydroisoquinolin-4-ylamino)pyridin-3-yl]-1-(1H-tetrazol-5-yl)ethyl]pentanoic acid], the figures for the IC50 at IMP-1, at NDM-1 and at VIM-1 were 1 µM, 0.35 µM and 0.013 µM, respectively. For the same compound, the “NDM1 EC30016 MITC95” value in assay [1] turned out to be 12.5 µM. Also, the “VIM1 KP599644 MITC95” value in assay [2] came to 25 µM. Moreover, in assay [3], the “IMP1 SM5741 MITC95” value amounted to 18.8 µM.
As to `CC(C)C[C@H](C(=O)O)[C@H](Cc1ccc(NCCC(N)C(F)(F)F)nc1)c1nnn[nH]1` (stereo partly drawn) [Example 320, (2S)-2-[(1S)-2-{6-[(3-amino-4,4,4-trifluorobutyl)amino]pyridin-3-yl}-1-(1H-tetrazol-5-yl)ethyl]-4-methylpentanoic acid], the values for the 50% inhibitory concentration (IC50) on IMP-1, on NDM-1 and on VIM-1 were 0.32 µM, 0.083 µM and 0.015 µM, respectively. In addition, the “NDM1 EC30016 MITC95” value in assay [1] worked out at 1.6 µM. Further, the “VIM1 KP599644 MITC95” value in assay [2] was 50 µM. Besides, the “IMP1 SM5741 MITC95” value in assay [3] was 12.5 µM.
Take `CC(C)C[C@H](C(=O)O)[C@H](Cc1ccc(NC2CCNC2)nc1)c1nnn[nH]1` (stereo partly drawn) [Example 321, (2S)-4-methyl-2-[(1S)-2-[6-(pyrrolidin-3-ylamino)pyridin-3-yl]-1-(1H-tetrazol-5-yl)ethyl]pentanoic acid]: the half-maximal inhibitory concentration (IC50) at IMP-1 is 1.6 µM; at NDM-1 it was 0.44 µM; on VIM-1 it was 0.0051 µM. The “NDM1 EC30016 MITC95” value in assay [1] was found to be 3.1 µM. Moreover, the “VIM1 KP599644 MITC95” value in assay [2] was 18.8 µM. Besides, in assay [3], the “IMP1 SM5741 MITC95” value was 18.8 µM.
Turning to `CC(C)C[C@H](C(=O)O)[C@H](Cc1ccc(N2CCCC(C(C)(C)N)C2)nc1)c1nnn[nH]1` (stereo partly drawn) [Example 322, (2S)-2-[(1S)-2-{6-[3-(1-amino-1-methylethyl)piperidin-1-yl]pyridin-3-yl}-1-(1H-tetrazol-5-yl)ethyl]-4-methylpentanoic acid], the IC50 on IMP-1 is 0.55 µM; at NDM-1, 0.34 µM; on VIM-1, 0.011 µM. Also, the “NDM1 EC30016 MITC95” value in assay [1] was determined as 18.8 µM. For the same compound, the “VIM1 KP599644 MITC95” value in assay [2] is 50 µM. The “IMP1 SM5741 MITC95” value in assay [3] was determined as 25 µM.
On to `CC(C)C[C@H](C(=O)O)[C@H](Cc1ccc(NCC2CNCCC2O)nc1)c1nnn[nH]1` (stereo partly drawn) [Example 323, (2S)-2-[(1S)-2-(6-{[(4-hydroxypiperidin-3-yl)methyl]amino}pyridin-3-yl)-1-(1H-tetrazol-5-yl)ethyl]-4-methylpentanoic acid], for which the concentration for half-maximal inhibition (IC50) at IMP-1 was 0.93 µM; at NDM-1, 0.12 µM; on VIM-1, 0.017 µM. Besides, in assay [1], the “NDM1 EC30016 MITC95” value amounted to 1.6 µM. Besides, the “VIM1 KP599644 MITC95” value in assay [2] stood at 18.8 µM. Moreover, the “IMP1 SM5741 MITC95” value in assay [3] turned out to be 6.2 µM.
